From patent publication US20140235617A1, “Combinations of Hepatitis C Virus Inhibitors” (BRISTOL-MYERS SQUIBB COMPANY, priority 2010, published 2014)
“And” between values parts separate entries of the source, which are not always exact repeats. Identical values can stand only once. Like-named read-outs stand apart in the source and are kept apart here.

Test system: genotype Ib HCV replicon
Assay: HCV replicon luciferase assay, monotherapy and triple combination studies
Format: cell-based
Conditions: monotherapy, 3 days, Expt 1-3
From the text: The HCV replicons used in these studies were generated at Bristol-Myers Squibb using the procedure described in WO2004014852. […] The functional replicon was then assembled in plasmid pGem9zf(+) (Promega, Madison, Wis.) using standard molecular biology techniques. To create a replicon encoding a luciferase reporter, the gene encoding humanized Renilla Luciferase protein was introduced upstream of the neomycin phosphotransferase gene.
HCV replicon cell lines were isolated from colonies as described by Lohman, et. al (Lohmann, V., F. Korner, J.-O. Koch, U. Herian, L. Theilmann, and R. Bartenschlager 1999, Science 285:110-113) and used for all experiments. Briefly, replicon clones were linearized with ScaI and RNA transcripts synthesized in vitro using the T7 MegaScript transcription kit (Ambion, Austin, Tex.) according to manufacturer's directions. […] After 24 h, selective media containing 0.5 mg/mL Geneticin (G418, Gibco-BRL, Rockville, Md.) was added and media was changed every 3 to 5 days. After approximately 4 weeks, cells were expanded for further analysis. Cells were maintained at 37° C. in DMEM (Gibco-BRL, Rockville, Md.) with 10% heat inactivated calf serum (Sigma), penicillin/streptomycin, and 0.5 mg/ml G418.
To determine compound efficacy, HCV replicon cells were plated at a density of 10^4 per well in 96-well plates in DMEM media containing 10% FBS. Following incubation overnight, compounds serially diluted in DMSO, or DMSO alone, were added to individual wells to a final DMSO concentration of 0.5%. Cell plates were then incubated at 37° C. for 3 days prior to assaying for cytotoxicity and HCV inhibition.
Plates were then washed two times with PBS and renilla luciferase activity assayed using a Dual-Glo Luciferase Assay System (Promega Corporation, Madison, Wis.) according to the manufacturer's directions. Plates were read on a TopCount NXT Microplate Scintillation and Luminescence Counter (Packard Instrument Company). The 50% effective concentration (EC50) was calculated by using Excel Fit (Version 2.0, Build 30).
Stock solutions, 200 times the desired final assay concentration, were prepared by 3-fold dilution in DMSO prior to addition to cells/media.

C=C[C@@H]1C[C@]1(NC(=O)[C@@H]1C[C@@H](Oc2ncc(OC)c3ccc(Cl)cc23)CN1C(=O)[C@@H](NC(=O)OC(C)(C)C)C(C)(C)C)C(=O)NS(=O)(=O)C1CC1 [NS3 PI]
EC50 (Hepatitis C virus, 72 h, read-out: NS3 PI EC50): 0.825 nM | EC50 (read-out: NS3 PI EC50): 1.2 nM and 0.705 nM

COC(=O)N[C@H](C(=O)N1CCCC1c1ncc(-c2ccc(-c3ccc(-c4cnc(C5CCCN5C(=O)[C@@H](NC(=O)OC)C(C)C)[nH]4)cc3)cc2)[nH]1)C(C)C (stereo partly shown) [NS5A Inhibitor]
EC50 (Hepatitis C virus, 72 h, read-out: NS5A Inhibitor EC50): 0.002 nM | EC50 (read-out: NS5A Inhibitor EC50): 0.003 nM
